Test results from patent publication US5942631A, “Inhibitors of cholesterol esterase” (University Of New Mexico, priority 1998, dated 1999).

Molecular target: T1, cholesterol esterase (CE) (Homo sapiens, UniProt P19835)
T1 sequence (P19835 21-753): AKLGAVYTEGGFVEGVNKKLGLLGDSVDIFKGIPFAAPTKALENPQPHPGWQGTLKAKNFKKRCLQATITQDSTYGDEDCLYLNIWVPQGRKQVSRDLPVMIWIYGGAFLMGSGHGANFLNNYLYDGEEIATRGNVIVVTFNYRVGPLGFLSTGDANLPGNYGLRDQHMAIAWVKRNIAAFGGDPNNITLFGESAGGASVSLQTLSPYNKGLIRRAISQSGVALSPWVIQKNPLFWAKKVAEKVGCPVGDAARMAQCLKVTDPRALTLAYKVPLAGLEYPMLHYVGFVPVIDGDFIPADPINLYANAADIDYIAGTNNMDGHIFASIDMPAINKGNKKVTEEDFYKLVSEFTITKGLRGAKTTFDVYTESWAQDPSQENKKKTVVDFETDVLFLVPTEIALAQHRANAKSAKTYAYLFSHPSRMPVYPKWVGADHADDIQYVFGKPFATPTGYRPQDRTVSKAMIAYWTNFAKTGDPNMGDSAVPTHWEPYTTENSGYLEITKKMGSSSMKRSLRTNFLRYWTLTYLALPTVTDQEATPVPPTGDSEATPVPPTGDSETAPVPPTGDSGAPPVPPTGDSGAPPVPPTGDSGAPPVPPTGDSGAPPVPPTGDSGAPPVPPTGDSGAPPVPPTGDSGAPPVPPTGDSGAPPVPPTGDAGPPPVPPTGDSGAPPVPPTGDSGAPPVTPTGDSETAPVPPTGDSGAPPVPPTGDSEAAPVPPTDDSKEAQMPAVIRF
Experiment: Kinetic inhibition studies of cholesterol esterase (CE), substrate p-nitrophenylbutyrate, Dixon plots
Format: biochemical
Details: for inhibition of CE: kinetic inhibition studies, result in words

| SMILES | inhibition of CE | mode of inhibition of CE (1/V v [I] plots intersect above the x-axis, FIG. 6) | Ki (printed as "<<30", inferred because calculated Ki equals [E]/2, read-out: actual Ki for CE (suggested)) [nM] |
| --- | --- | --- | --- |
| O=c1oc(Cl)ccc1CC1CCCCC1 [Example 2] | potent inhibitors of CE | – | – |
| O=c1oc(Cl)ccc1CCCC1CCCCC1 [Example 4] | potent inhibitors of CE | – | – |
| O=c1oc(Cl)ccc1CCC1CCCCC1 [Example 3, 3-(2-cyclohexylethyl)-6-chloropyronle] | potent inhibitors of CE | competitive inhibition | < 30 |
